The assay addresses T1, AbnA-WT (Geobacillus stearothermophilus, UniProt B3EYN2).
T1 sequence (B3EYN2 29-848): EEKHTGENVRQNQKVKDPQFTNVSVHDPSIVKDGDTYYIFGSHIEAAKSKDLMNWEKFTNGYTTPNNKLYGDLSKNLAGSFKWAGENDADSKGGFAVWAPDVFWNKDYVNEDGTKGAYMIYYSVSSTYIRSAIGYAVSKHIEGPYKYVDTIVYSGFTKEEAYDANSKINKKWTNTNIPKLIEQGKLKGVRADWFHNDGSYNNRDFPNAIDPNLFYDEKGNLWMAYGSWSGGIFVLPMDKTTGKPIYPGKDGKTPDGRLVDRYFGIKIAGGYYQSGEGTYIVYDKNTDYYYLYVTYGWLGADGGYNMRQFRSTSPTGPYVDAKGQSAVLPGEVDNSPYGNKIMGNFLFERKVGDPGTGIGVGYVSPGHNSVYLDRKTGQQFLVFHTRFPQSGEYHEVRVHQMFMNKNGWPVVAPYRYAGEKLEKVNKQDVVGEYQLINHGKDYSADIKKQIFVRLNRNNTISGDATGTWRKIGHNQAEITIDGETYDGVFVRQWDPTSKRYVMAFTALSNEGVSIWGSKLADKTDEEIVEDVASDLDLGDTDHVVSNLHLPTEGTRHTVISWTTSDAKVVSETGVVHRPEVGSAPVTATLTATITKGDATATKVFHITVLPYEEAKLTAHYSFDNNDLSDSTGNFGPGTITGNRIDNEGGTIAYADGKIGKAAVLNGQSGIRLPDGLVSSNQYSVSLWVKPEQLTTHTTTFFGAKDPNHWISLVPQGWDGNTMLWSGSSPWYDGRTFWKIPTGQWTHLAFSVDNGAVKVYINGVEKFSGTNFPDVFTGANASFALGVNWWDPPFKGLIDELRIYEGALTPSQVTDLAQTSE
The assay can be described thus: X-ray crystal structure, soaked crystal, […] A. The class given is binding. The conditions noted are these: bound in Domain4 (CBM-like) cleft, not in the active site; 5 mM soak ~30 s; 70% occupancy.

Turning to `OC[C@@H]1O[C@@H](OC[C@@H]2O[C@@H](OC[C@@H]3O[C@@H](OC[C@@H]4O[C@@H](OC[C@@H]5OC(O)[C@H](O)[C@H]5O)[C@H](O)[C@H]4O)[C@H](O)[C@H]3O)[C@H](O)[C@H]2O)[C@H](O)[C@H]1O` (stereo partly shown) [A5, arabinopentaose], the “X-ray crystal structure, soaked crystal, 2.95 A” value was “extra density was observed in Domain4, and this could be clearly modelled as an arabinopentaose molecule”.

Values taken from article PMC9110388, “Integrative structure determination reveals functional global flexibility for an ultra-multimodular arabinanase” (Communications Biology, 2022).
